EC50 data for three compounds are collected here from patent US20150072969A1, “PHENYL ALKANOIC ACID DERIVATIVES AS GPR AGONISTS” (PIRAMAL ENTERPRISES LIMITED, priority 2012, published 2015).

Bounds are passed on as bounds.

T1 sequence (O14842 whole entry): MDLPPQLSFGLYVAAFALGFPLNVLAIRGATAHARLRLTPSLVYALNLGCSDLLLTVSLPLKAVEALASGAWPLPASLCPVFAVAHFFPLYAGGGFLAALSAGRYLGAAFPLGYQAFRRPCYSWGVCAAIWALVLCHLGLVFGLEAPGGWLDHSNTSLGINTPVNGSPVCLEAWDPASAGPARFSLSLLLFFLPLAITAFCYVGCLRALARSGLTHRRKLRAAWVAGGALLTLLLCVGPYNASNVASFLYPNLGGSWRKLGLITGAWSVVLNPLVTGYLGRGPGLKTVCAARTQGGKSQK

This test has as its target T1, human GPR40 (Homo sapiens, UniProt O14842).
T1 construct: expressed in transfected cells
Briefly: Inositol phosphate accumulation assay in FFAR1 (GPR40) CHOK1 clone. The format is cell-based. The note with it: GPR40 agonist activity; intracellular inositol phosphate release in CHOK1 cells stably expressing recombinant human GPR40; 1 h incubation at 37° C. The procedure:
The inositol phosphate accumulation assay was performed to characterise the GPR40 agonist activity of the compounds of the present invention.
The assay was carried out in accordance with the method substantially as described in Diabetes, 2008, 57(8):2211-2219 and PLoS One, 2011, 6(11):e27270.
A stable FFAR1 (GPR40) CHOK1 clone was used to determine the GPR40 agonist activity of the test compounds (compounds of the present invention synthesized in the above Examples). The stable FFAR1 (GPR40) CHOK1 clone expressing recombinant human GPR40 was generated according to the procedure described herein below.
Full-length human GPR40 cDNA (Accession Number: NM_005303) was cloned into mammalian expression vector (pReceiver) and was stably transfected into (Chinese Hamster Ovary) CHOK1 cells using Amaxa technology. 2 μg of pReceiver hGPR40 were transfected into 1×10^6 CHOK1 cells in 6 well plates. The cells were split into three 100 mm cell culture plates on the second day and geneticin (800 μg/ml) was added to the cell culture on the third day. The selection medium comprising Ham's F-12 K supplemented with FBS (10%) and geneticin (800 μg/ml) was changed every three days until colonies were formed. The colonies isolated were further purified (single cell cloning) after 14 days to obtain pure isogenic single cell homogenous population of cells expressing the GPR40 receptor protein on the cell surface. GPR40 receptor expression on cell surface was measured by flow cytometry. The in-house transgenic cell line (clone) created was labeled as FFAR1 (GPR40) CHOK1 clone.
FFAR1 (GPR40) CHOK1 cells were suspended in culture medium comprising Ham's F-12 K supplemented with FBS (10%) and geneticin (800 μg/ml). Cells were seeded at a density of 2×10^4 cells per well in a 384 well tissue culture plate and cultured overnight. The medium was discarded and the cells were further resuspended in a stimulation buffer comprising HEPES (10 mM), glucose (5.5 mM), CaCl2 (1 mM), NaCl (150 mM), KCl (4.2 mM), MgCl2 (0.5 mM) and LiCl (50 mM) having a pH of 7.6. The test compounds (representative compounds of Formula (I)) 10 mM stock were prepared in DMSO and subsequently log fold dilution of the test compounds were carried out in the stimulation buffer. Various concentrations of the test compounds and the standard DMSO solution were added to each well. The plates were further incubated at 37° C., 5% CO2 incubator for 1 h. The final concentration of the test compounds in the each well varied from 1 μM to 10 μM. The DMSO concentration in the assay was 0.1% or less. After incubation, lysis reagent and anti-Tb conjugate were added to each well. The intracellular Inositol Phosphate release and accumulation in the test compounds were measured by the binding ability of the anti-Tb conjugate with the inositol phosphate inherently produced in each well as compared with the inositol phosphate coupled to dye d2 added externally to each well. The plates were then read using Perkin Elmer (Envision) plate reader and the fluorescence signal was captured. The EC50 values for the test compounds were calculated from the non linear regression sigmoidal curve graphs plotted between the concentrations of the test compounds and the fluorescence intensity.
A word on the EC50: it is the concentration needed to bring the measured effect to its halfway point. For `CC(C)Sc1ccc(-c2cccc(COc3ccc(C4(CC(=O)O)COC4)cc3)c2)cc1` [Example 89, 2-(3-(4-((4′-(Isopropylthio)-[1,1′-biphenyl]-3-yl)methoxy)phenyl)oxetan-3-yl)acetic acid], the 50% effective concentration (EC50) lay within 100 to 500 nM.
As for `Cc1cc(-c2cccc(COc3ccc(C4(CC(=O)O)COC4)cc3)c2)cc(C)c1OCCCS(C)(=O)=O` [Example 79, 2-(3-(4-((3′,5′-Dimethyl-4′-(3-(methylsulfonyl)propoxy)-[1,1′-biphenyl]-3-yl)methoxy)phenyl)oxetan-3-yl)acetic acid], the figure is 100 to 500 nM.
For the compound `Cc1ccc(C(F)(F)F)cc1COc1ccc(C2(CC(=O)O)COC2)cc1` [Example 24], the 50% effective concentration (EC50) is more than 500 nM.
